Reference: patent US7897543B2, “Spiroketal-substituted cyclic ketoenols” (Bayer CropScience AG, priority 2005, dated 2011)

How the values were obtained:
[1] = tested on: Lolium multiflorum; assay: Example V 2: Herbicidal Post-Emergence Action; type: in vivo; conditions: greenhouse, 320 g of a.i./ha, about 3 weeks
Description: (§1) Seeds of monocotyledonous and dicotyledonous weed and crop plants are placed into sandy loam in wood fibre pots, covered with soil and cultivated in a greenhouse under good growth conditions. 2-3 weeks after sowing, the test plants are treated at the one-leaf stage. The test compounds, formulated as wettable powders (WP), are then, in various dosages with a water application rate of 600 l/ha (converted), with 0.2% of wetting agent added, sprayed onto the green parts of the plants. After the test plants have been kept in the greenhouse under optimum growth conditions for about 3 weeks, the effect of the preparations is rated visually in comparison to untreated controls (herbicidal effect in percent (%): 100% effect=the plants have died, 0% effect=like control plants).

[2] = tested on: Echinocloa crus-galli; assay: Example V 2: Herbicidal Post-Emergence Action; type: in vivo; conditions: greenhouse, 320 g of a.i./ha, about 3 weeks
Description: as §1

[3] = tested on: monocotyledonous and dicotyledonous weed and crop plants; assay: Example V 2: Herbicidal Post-Emergence Action; type: in vivo; conditions: greenhouse, 320 g of a.i./ha, about 3 weeks
Description: as §1

[4] = tested on: Setaria viridis; assay: Example V 2: Herbicidal Post-Emergence Action; type: in vivo; conditions: greenhouse, 320 g of a.i./ha, about 3 weeks
Description: as §1

[5] = tested on: Phaedon cochleariae; assay: Example N: Phaedon Test (spray treatment); type: in vivo; conditions: application rate 500 g/ha
Description: (§2) [table] To produce a suitable preparation of active compound, 1 part by weight of active compound is mixed with the stated amounts of solvents and emulsifier, and the concentrate is diluted with emulsifier-containing water to the desired concentration. Discs of Chinese cabbage (Brassica pekinensis) are sprayed with a preparation of active compound of the desired concentration and, after drying, populated with larvae of the mustard beetle (Phaedon cochleariae).

[6] = tested on: Plutella xylostella; assay: Example D: Plutella Test (7:1); type: in vivo; conditions: concentration of 1000 ppm
Description: (§3) To produce a suitable preparation of active compound, 1 part by weight of active compound is mixed with the stated amounts of solvent and emulsifier, and the concentrate is diluted with emulsifier-containing water to the desired concentration.
Cabbage leaves (Brassica oleracea) are treated by being dipped into the preparation of active compound of the desired concentration and are populated with caterpillars of the diamond back moth (Plutella xylostella) while the leaves are still moist.
After the desired period of time, the kill in % is determined. 100% means that all caterpillars have been killed; 0% means that none of the caterpillars have been killed.

[7] = tested on: Nephotettix cincticeps; assay: Example F: Nephotettix Test (7:1); type: in vivo; conditions: concentration of 1000 ppm
Description: as §3
Rice seedlings (Oryza sativa) are treated by being dipped into the preparation of active compound of the desired concentration and are populated with the green rice leaf hopper (Nephotettix cincticeps) while the leaves are still moist.
After the desired period of time, the kill in % is determined. 100% means that all leaf hoppers have been killed; 0% means that none of the leaf hoppers have been killed.

[8] = tested on: Test plants; assay: Example U: Pre-emergence Test; type: in vivo; conditions: greenhouse, 250 g of a.i./ha, after three weeks
Description: To produce a suitable preparation of active compound, 1 part by weight of active compound is mixed with the stated amount of solvent, the stated amount of emulsifier is added and the concentrate is diluted with water to the desired concentration.
Seeds of the test plants are sown in normal soil. After about 24 hours, the soil is sprayed with the preparation of active compound such that the particular amounts of active compound desired are applied per unit area. The concentration of the spray liquor is chosen such that the particular amounts of active compound desired are applied in 1000 l of water/ha.
After three weeks, the degree of damage to the plants is rated in % damage in comparison to the development of the untreated control.
The figures denote: • 0%=no effect (like untreated control) • 100%=total destruction

[9] = tested on: Meloidogyne incognita; assay: Example H: Meloidogyne Test (7:1); type: in vivo; conditions: concentration of 20 ppm
Description: (§4) To produce a suitable preparation of active compound, 1 part by weight of active compound is mixed with the stated amounts of solvent and emulsifier, and the concentrate is diluted with water to the desired concentration.
(§5) Vessels are filled with sand, solution of active compound, Meloidogyne incognita egg/larvae suspension and lettuce seeds. The lettuce seeds germinate and the plants develop. On the roots, galls are formed.
(§6) After the desired period of time, the nematicidal activity is determined in % by the formation of galls. 100% means that no galls have been found; 0% means that the number of galls on the treated plants corresponds to that of the untreated control.

[10] = tested on: Meloidogyne incognita; assay: Example K: Meloidogyne Test; type: in vivo; conditions: concentration of 20 ppm
Description: as §4, §5, §6

[11] = tested on: Meloidogyne incognita; assay: Example P: Meloidogyne Test (spray treatment); type: in vivo; conditions: concentration of 20 ppm
Description: To produce a suitable preparation of active compound, 1 part by weight of active compound is mixed with the stated amount of solvent, and the concentrate is diluted with water to the desired concentration.
as §5, §6

[12] = tested on: Phaedon cochleariae; assay: Example M: Phaedon cochleariae Larvae Test; type: in vivo; conditions: concentration of 100 ppm
Description: as §2, with “solvent” for “solvents”, “Cabbage leaves” for “Discs of Chinese cabbage”, “oleracea)” for “pekinensis)”, “treated by being dipped into the” for “sprayed with a”, “and are” for “and, after drying,”, “cochleariae) while the leaves are still moist.” for “cochleariae).”

[13] = tested on: cereal crop plants; assay: Profiling tests, herbicidal post-emergence action with safeners: container trials with cereal in a greenhouse, Mefenpyr 1 day prior to herbicide application; conditions: in vivo
Description: Test Description for Profiling Tests
2. Herbicidal Post-Emergence Action
Seeds of monocotyledonous and dicotyledonous weed and crop plants are placed into sandy loam in wood fibre pots or in plastic pots, covered with soil and cultivated in a greenhouse, during the vegetation period also outdoors outside of the greenhouse, under good growth conditions. 2-3 weeks after sowing, the test plants are treated at the one- to three-leaf stage. The test compounds, formulated as wettable powders (WP) or emulsifiable concentrates (EC) are, in various dosages with a water application rate of 300 l/ha (converted), with wetting agent (0.2 to 0.3%) added, sprayed onto the plants and the surface of the soil. […] after the treatment of the test plants, the effect of the preparations is rated visually in comparison to untreated controls (herbicidal effect in percent (%): 100% effect=the plants have died, 0% effect=like control plants). […]

Compound: Cc1cc(C)c(C2=C(O)C3(CCC4(CC3)OC(C)C(C)O4)NC2=O)c(C)c1 (mixture of isomers) [Ex. I-1-a-7]
- herbicidal effect, Lolium [1]: 80%
- herbicidal effect, Echinochloa [2]: 60%
- herbicidal effect, Sinapis [3]: 60%
- herbicidal effect, Setaria [4]: 80%
- activity in % [5]: 100%

Compound: Cc1cc(C)c(C2=C(O)C3(CCC4(CC3)OC(C)CC(C)O4)NC2=O)c(C)c1 (mixture of isomers) [Ex. I-1-a-21]
- herbicidal effect, Lolium [1]: 80%
- herbicidal effect, Echinochloa [2]: 80%
- herbicidal effect, Sinapis [3]: 70%
- herbicidal effect, Setaria [4]: 90%

Compound: CCOC(=O)OC1=C(c2c(C)cc(C)cc2C)C(=O)NC12CCC1(CC2)OCC(C)O1 (mixture of isomers) [Ex. I-1-c-6]
- herbicidal effect, Lolium [1]: 90%
- herbicidal effect, Echinochloa [2]: 80%
- herbicidal effect, Sinapis [3]: 60%
- herbicidal effect, Setaria [4]: 90%
- activity in % [5]: 100%

Compound: Cc1cc(C)c(C2=C(O)C3(CCC4(CC3)OCCO4)NC2=O)c(C)c1 [Ex. I-1-a-2]
- activity (kill in %) [6]: 100%
- herbicidal effect, Lolium [1]: 70%
- herbicidal effect, Echinochloa [2]: 80%
- herbicidal effect, Sinapis [3]: 60%
- herbicidal effect, Setaria [4]: 90%
- activity (kill in %) [7]: 100%

Compound: Cc1cc(Cl)cc(C)c1C1=C(O)C2(CCC3(CC2)OCCO3)NC1=O [Ex. I-1-a-4]
- damage, Amaranthus ([8]; sub-table 1): 95%
- damage, Echinochloa ([8]; sub-table 1): 100%
- damage, Galium ([8]; sub-table 1): 70%
- damage, Setaria ([8]; sub-table 1): 100%
- damage, Sinapis ([8]; sub-table 1): 70%
- nematicidal activity in % (formation of galls) [9]: 95%

Compound: Cc1ccc(C)c(C2=C(O)C3(CCC4(CC3)OCCCO4)NC2=O)c1 [Ex. I-1-a-12]
- nematicidal activity in % (formation of galls) [10]: 80%

Compound: O=C1NC2(CCC3(CC2)OCCCO3)C(O)=C1c1cc(-c2ccc(Cl)cc2)ccc1Cl [Ex. I-1-a-15]
- nematicidal activity in % (formation of galls) [11]: 100%
- damage, Sugar beet ([8]; crop plant, sub-table 3): 0%
- damage, Alopecurus ([8]; sub-table 3): 95%
- damage, Avena fatua ([8]; sub-table 3): 80%
- damage, Echinochloa ([8]; sub-table 3): 99%
- damage, Setaria ([8]; sub-table 3): 70%

Compound: Cc1cc(C)c(C2=C(O)C3(CCC4(CC3)OCCCO4)NC2=O)c(C)c1 [Ex. I-1-a-18]
- herbicidal effect, Lolium [1]: 80%
- herbicidal effect, Echinochloa [2]: 90%
- herbicidal effect, Setaria [4]: 100%
- activity in % [5]: 100%

Compound: Cc1cc(Br)cc(C)c1C1=C(O)C2(CCC3(CC2)OCCCO3)NC1=O [Ex. I-1-a-19]
- herbicidal effect, Lolium [1]: 90%
- herbicidal effect, Echinochloa [2]: 90%
- herbicidal effect, Sinapis [3]: 70%
- herbicidal effect, Setaria [4]: 90%

Compound: Cc1cc(C)c(C2=C(O)C3(CCC4(CC3)OCC(C)(C)CO4)NC2=O)c(C)c1 [Ex. I-1-a-23]
- activity (kill in %) [12]: 100%

Compound: CCOC(=O)OC1=C(c2c(CC)cc(Cl)cc2OC)C(=O)NC12CCC1(CC2)OCCO1 [Ex. I-1-c-25]
- Summer barley observed (%) [13]: 50%

Compound: Cc1cc(C)c(C2=C(O)C3(CCC4(CC3)OCCO4)OC2=O)c(C)c1 [Ex. I-2-a-2]
- activity (kill in %) [6]: 100%
- herbicidal effect, Lolium [1]: 90%
- herbicidal effect, Echinochloa [2]: 80%
- herbicidal effect, Amaranthus [3]: 60%
- herbicidal effect, Sinapis [3]: 70%
- herbicidal effect, Setaria [4]: 100%
- activity (kill in %) [7]: 100%

Compound: Cc1cc(Cl)cc(C)c1C1=C(O)C2(CCC3(CC2)OCCCO3)OC1=O [Ex. I-2-a-6]
- herbicidal effect, Lolium [1]: 80%
- herbicidal effect, Echinochloa [2]: 60%
- herbicidal effect, Sinapis [3]: 60%
- herbicidal effect, Setaria [4]: 80%

Compound: Cc1cc(C)c(C2=C(OC(=O)C(C)(C)C)C3(CCC4(CC3)OCCO4)OC2=O)c(C)c1 [Ex. I-2-b-2]
- activity (kill in %) [6]: 100%
- activity (kill in %) [7]: 100%
